Several values for one entry are separate records, joined by “and”; a condition that tells them apart may be missing. Equal entries are not always repeated. Toxic doses and inconclusive results are not listed. Rule as the data show it: active = T/C of 150% or more; inactive = T/C below 125%.
Tested on: L1210 leukemia ip in BDF1 mice, survival T/C
Assay: NCI In Vivo Anticancer Drug Screen. Data for tumor model L1210 Leukemia (intraperitoneal) in B6D2F1 (BDF1) mice
Details: endpoint: mean survival time, higher = longer survival
Outline: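 Ratio derived from survival: compound-dosed mice over vehicle-dosed mice, all bearing a transplantable tumor.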

[1] = dose: 100.0 mg/kg/injection, schedule: Q01DX001 (ip), vehicle: Klucel (hydroxypropylcellulose) (HPC)
[2] = dose: 200.0 mg/kg/injection, schedule: Q01DX001 (ip), vehicle: Klucel (hydroxypropylcellulose) (HPC)
[3] = dose: 12.5 mg/kg/injection, schedule: Q01DX009 (ip), vehicle: Klucel (hydroxypropylcellulose) (HPC)
[4] = dose: 25.0 mg/kg/injection, schedule: Q01DX009 (ip), vehicle: Klucel (hydroxypropylcellulose) (HPC)
[5] = dose: 25.0 mg/kg/injection, schedule: Q04DX003 (ip), vehicle: Klucel (hydroxypropylcellulose) (HPC)
[6] = dose: 50.0 mg/kg/injection, schedule: Q04DX003 (ip), vehicle: Klucel (hydroxypropylcellulose) (HPC)
[7] = dose: 100.0 mg/kg/injection, schedule: Q04DX003 (ip), vehicle: Klucel (hydroxypropylcellulose) (HPC)
[8] = dose: 200.0 mg/kg/injection, schedule: Q04DX003 (ip), vehicle: Klucel (hydroxypropylcellulose) (HPC)
[9] = dose: 75.0 mg/kg/injection, schedule: Q01DX001 (ip), vehicle: saline
[10] = dose: 150.0 mg/kg/injection, schedule: Q01DX001 (ip), vehicle: saline
[11] = dose: 300.0 mg/kg/injection, schedule: Q01DX001 (ip), vehicle: saline
[12] = dose: 75.0 mg/kg/injection, schedule: Q01DX009 (ip), vehicle: Klucel (hydroxypropylcellulose) (HPC)
[13] = dose: 150.0 mg/kg/injection, schedule: Q01DX009 (ip), vehicle: Klucel (hydroxypropylcellulose) (HPC)
[14] = dose: 300.0 mg/kg/injection, schedule: Q01DX009 (ip), vehicle: Klucel (hydroxypropylcellulose) (HPC)
[15] = dose: 100.0 mg/kg/injection, schedule: Q01DX009 (ip), vehicle: Klucel (hydroxypropylcellulose) (HPC)
[16] = dose: 200.0 mg/kg/injection, schedule: Q01DX009 (ip), vehicle: Klucel (hydroxypropylcellulose) (HPC)
[17] = dose: 400.0 mg/kg/injection, schedule: Q01DX009 (ip), vehicle: Klucel (hydroxypropylcellulose) (HPC)
[18] = dose: 100.0 mg/kg/injection, schedule: Q01DX009 (ip), vehicle: saline with Tween-80
[19] = dose: 200.0 mg/kg/injection, schedule: Q01DX009 (ip), vehicle: saline with Tween-80

Measured: T/C

CCNS(=O)(=O)c1cccc(C(=S)OCC)c1
inactive: [1] 105 % of control | [2] 101 % of control | dose: 400.0 mg/kg/injection, schedule: Q01DX001 (ip), vehicle: Klucel (hydroxypropylcellulose) (HPC) 108 % of control

O=[N+]([O-])c1cc(C(F)(F)F)ccc1Cl
inactive: dose: 100.0 mg/kg/injection, schedule: Q01DX009 (ip), vehicle: saline 102 % of control | dose: 200.0 mg/kg/injection, schedule: Q01DX009 (ip), vehicle: saline 97 % of control

COC(=O)C(=CC(Cl)(Cl)Cl)C(=O)OC
inactive: dose: 6.2 mg/kg/injection, schedule: Q01DX009 (ip), vehicle: Klucel (hydroxypropylcellulose) (HPC) 102 % of control | [3] 96 % of control | [4] 96 % of control | [5] 102 % of control | [6] 97 % of control | [1] 101 % of control | [7] 97 % of control | [2] 105 % of control | [8] 102 % of control

NC(N)=NC(N)=NCCCCc1ccccc1
inactive: [5] 95 % of control | [6] 109 % of control | [7] 101 % of control

COC(=O)C1=CC(C(=O)OC)C(C(=O)OC)N2C=CSC2=C1 (stereo unspecified)
inactive: dose: 25.0 mg/kg/injection, schedule: Q04DX003 (ip), vehicle: saline 93 % of control | dose: 50.0 mg/kg/injection, schedule: Q04DX003 (ip), vehicle: saline 100 % of control | dose: 100.0 mg/kg/injection, schedule: Q04DX003 (ip), vehicle: saline 96 % of control

CCC(COC(=O)c1ccc([N+](=O)[O-])cc1)NCCC1CCCCC1 (stereo unspecified)
inactive: [9] 101 % of control | [10] 104 % of control | [11] 103 % of control

O=C1C=C(c2ccccc2)OC(c2ccccc2)C1 (stereo unspecified)
inactive: [12] 97 % of control | [13] 99 % of control | [14] 99 % of control

O=[N+]([O-])c1ccc(CC(O)c2ccccc2)cc1 (stereo unspecified)
inactive: [6] 105 % of control | [15] 111 % of control | [7] 102 % of control | [16] 107 % of control | [8] 105 % of control | [17] 103 % of control | dose: 400.0 mg/kg/injection, schedule: Q04DX003 (ip), vehicle: Klucel (hydroxypropylcellulose) (HPC) 105 % of control

CC(C)OC(=O)NCc1cccs1
inactive: dose: 100.0 mg/kg/injection, schedule: Q01DX009 (ip), vehicle: carboxymethylcellulose (CMC) 104 % of control | dose: 200.0 mg/kg/injection, schedule: Q01DX009 (ip), vehicle: carboxymethylcellulose (CMC) 101 % of control | dose: 400.0 mg/kg/injection, schedule: Q01DX009 (ip), vehicle: carboxymethylcellulose (CMC) 104 % of control

Nc1nc(Cl)c2nnn(C3CC(O)C(CO)C3)c2n1 (stereo unspecified)
inactive: [4] 118 % of control | dose: 50.0 mg/kg/injection, schedule: Q01DX009 (ip), vehicle: Klucel (hydroxypropylcellulose) (HPC) 105 % of control | [15] 100 % of control

O=C(/C=C/c1ccccc1)NN1CCOCC1
inactive: [12] 92 % of control | [13] 108 % of control | [14] 115 % of control

c1ccc2c(c1)ccc1[nH]c3ccc4ccccc4c3c12
inactive: [3] 109 % of control | [4] 93 % of control | [5] 107 % of control | [6] 86 % of control | [7] 97 % of control

NC(N)=NCCCS
inactive: [9] 104 % of control | [10] 104 % of control | [11] 104 % of control

Oc1c(Br)cc(Br)cc1/C=C/NC(=S)NC1CC2CC1C1C=CCC21 (stereo unspecified)
inactive: [15] 105 % of control | [16] 94 % of control | [17] 97 % of control

CC(=O)c1cccc(NC(=O)Nc2ccc(S(N)(=O)=O)cc2)c1
inactive: [18] 105 % of control | [19] 97 % of control

O=C(NC(=S)Nc1ccc([N+](=O)[O-])cc1Br)c1ccc(Cl)cc1Cl
inactive: [18] 89 % of control and 90 % of control | dose: 100.0 mg/kg/injection, schedule: Q04DX002 (ip), vehicle: saline with Tween-80 87 % of control and 90 % of control | [19] 93 % of control and 90 % of control | dose: 200.0 mg/kg/injection, schedule: Q04DX002 (ip), vehicle: saline with Tween-80 86 % of control and 92 % of control | dose: 400.0 mg/kg/injection, schedule: Q01DX009 (ip), vehicle: saline with Tween-80 93 % of control and 95 % of control | dose: 400.0 mg/kg/injection, schedule: Q04DX002 (ip), vehicle: saline with Tween-80 104 % of control and 92 % of control

Reference: PubChem BioAssay AID248 (DTP/NCI, 2004)
